≈ marks a conversion by molar mass, not a printed value. Where two headings read alike, the source gives them in different places.
Experiments:
[1] = system: Pseudomonas aeruginosa PAO1, Enterococcus faecalis V583 and Staphylococcus aureus Mu50 biofilm; assay: Lubbock chronic wound biofilm model: biofilm formation and dry weight; details: biofilm at 24 hours
[2] = system: Penicillium expansum; assay: Fungicidal activity, fumigation of Penicillium expansum spore plates in sealed 6 L containers; type: cell-based; details: 24 h exposure, further 48 h incubation; for MIC: Penicillium expansum, 24 h
Description: Experiments were conducted to determine the fungicidal activity of several compounds of the invention using Penicillium expansum as the test organism.
Plates of potato dextrose agar were streaked with a standard culture of Penicillium expansum spores (0.1 ml of a 2×10^5 cfu/ml) and placed in sealed plastic containers (nominal volume 6 liters). The containers (Rubbermaid) were fitted with a small fan (Radio Shack 12VDC) in the lids to ensure good distribution of the test compounds. The plates were exposed to different volumes (2.5 μl, 5 μl, 10 μl, 20 μl, 40 μl, 80 μl, or 120 μl) of standard solutions (1.0 to 4.0 mg/ml) of tested compounds in ethanol, under ambient conditions. After exposing for 24 h, the plates were removed and incubated for a further 48 h, at ambient temperature, and then monitored for growth of the test organism by visual observation.
The following tables provide summary results of three separate studies to determine the minimum amounts of the compounds needed to produce 100% inhibition of growth of the test organism. Results are expressed as minimal volumes (μl/6 L) and amounts (μg/L) required to produce 100% inhibition.

[3] = system: Methicillin Resistant Staphylococcus aureus (MRSA) (ATCC 33591); assay: MIC and MBC by Macrodilution Broth Method; type: cell-based
[4] = system: E. coli 0157:H7 (ATCC 43894); assay: MIC and MBC by Macrodilution Broth Method; type: cell-based; details: ATCC43894, Escherichia coli 0157:H7
[5] = system: Pseudomonas aeruginosa PAO1; assay: Lubbock biofilm model: relative ratio of bacterium by qPCR
[6] = system: Legionella pneumophila (ATCC 33152); assay: microbe, parasite or virus in culture; type: cell-based
[7] = system: Enterobacter cloacae (ATCC 13047); assay: MIC and MBC by Macrodilution Broth Method; type: cell-based
[8] = system: Klebsiella pneumoniae (ATCC 35657); assay: MIC and MBC by Macrodilution Broth Method; type: cell-based
[9] = system: Staphylococcus aureus (MRSA) (ATCC 33591); assay: MIC and MBC of Compound 1 and analogs, macrodilution; details: for MIC: 19 h; for MBC: 25 h
[10] = system: Streptococcus pyogenes (ATCC 10096); assay: MIC and MBC by Macrodilution Broth Method; type: cell-based; details: ATCC10096, Streptococcus pyrogenes
[11] = system: Listeria monocytogenes (ATCC 13932); assay: MIC and MBC by Macrodilution Broth Method; type: cell-based
[12] = system: Shigella dysenteriae (ATCC 12021); assay: MIC and MBC by Macrodilution Broth Method; type: cell-based
[13] = system: Staphylococcus aureus Mu50; assay: Lubbock biofilm model: relative ratio of bacterium by qPCR
[14] = Temperature and pH lability (GC-MS of ethanol eluate); type: physicochemical; details: high pH (above pH 7)
Description: As shown at a standard GC/MS injection temperature of 250° C., N-methyl N-nitroso isobutyramide is not detected as it most likely has broken down into other compounds. Therefore, this compound has never been previously identified.

[15] = system: Bacillus cereus (ATCC 10702); assay: MIC and MBC by Macrodilution Broth Method; type: cell-based
[16] = system: Proteus mirabilis (ATCC 3559); assay: MIC and MBC by Macrodilution Broth Method; type: cell-based
[17] = system: Enterococcus faecalis V583; assay: Lubbock biofilm model: relative ratio of bacterium by qPCR
[18] = system: Corynebacterium renale (ATCC 10848); assay: MIC and MBC by Macrodilution Broth Method; type: cell-based; details: ATCC10848, Corynebacterum renale
[19] = system: Clostridium sporogenes (ATCC 11437); assay: MIC and MBC by Macrodilution Broth Method; type: cell-based; details: ATCC11437, read-out: MIC concentration (ppm)
[20] = Experiment #1, read-out: Amount for 100% inhibition (μg compound/L air)
[21] = Experiment #2, read-out: Amount for 100% inhibition (μg compound/L air)
[22] = Experiment #3, read-out: Amount for 100% inhibition (μg compound/L air)
[23] = Experiment #4, read-out: Amount for 100% inhibition (μg compound/L air)
[24] = read-out: MBC concentration (ppm)
[25] = 37° C., 16 to 20 hours, read-out: MIC concentration (ppm)
[26] = Experiment #6, read-out: Amount for 100% inhibition (μg compound/L air)
[27] = Experiment #5, read-out: Amount for 100% inhibition (μg compound/L air)
[28] = read-out: Amount for 100% inhibition (μg compound/L air), Experiment #1

CC(C)C(=O)N(C)N=O [Compound 1, N-methyl N-nitrosoisobutyramide]
dry weight mg ± SD ([1]; dilution 1:10): 21.7 ± 3.2 mg
dry weight mg ± SD ([1]; dilution 1:100): 59 ± 4.4 mg
dry weight mg ± SD ([1]; dilution 1:1000): 63 ± 5.3 mg
dry weight mg ± SD ([1]; dilution 1:10000): 79.7 ± 5.5 mg
MIC [2, 20]: 0.0045 µg/mL (≈ 0.0346 µM)
MIC [2, 21]: 0.0043 µg/mL (≈ 0.033 µM)
MIC [2, 22]: 0.004 µg/mL (≈ 0.0307 µM)
MIC [2, 23]: 0.0084 µg/mL (≈ 0.0645 µM)
MBC [3, 24]: 12.5 µg/mL (≈ 96 µM)
MIC ([3]; read-out: MIC concentration (ppm)): 6.25 µg/mL (≈ 48 µM)
MIC [4, 25]: 12.5 µg/mL (≈ 96 µM)
MBC [4, 24]: 12.5 µg/mL (≈ 96 µM)
P. aeruginosa relative ratio in biofilm ([5]; dilution 1:10, 24 hours): 34.3% ± 1.2%
P. aeruginosa relative ratio in biofilm ([5]; dilution 1:100, 24 hours): 46.7% ± 8.0%
P. aeruginosa relative ratio in biofilm ([5]; dilution 1:1000, 24 hours): 50.5% ± 8.4%
P. aeruginosa relative ratio in biofilm ([5]; dilution 1:10000, 24 hours): 20.3% ± 0.9%
MBC ([6]; ATCC33152, read-out: MBC concentration (ppm)): 25 µg/mL (≈ 192 µM)
MIC ([6]; ATCC33152, read-out: MIC concentration (ppm)): 6.25 µg/mL (≈ 48 µM)
MIC ([7]; ATCC13047, 37° C., 16 to 20 hours, read-out: MIC concentration (ppm)): 12.5 µg/mL (≈ 96 µM)
MBC ([7]; ATCC13047, read-out: MBC concentration (ppm)): 12.5 µg/mL (≈ 96 µM)
MIC ([8]; ATCC35657, 37° C., 16 to 20 hours, read-out: MIC concentration (ppm)): 12.5 µg/mL (≈ 96 µM)
MBC ([8]; ATCC35657, read-out: MBC concentration (ppm)): 12.5 µg/mL (≈ 96 µM)
MIC [9]: 6.25 µg/mL
MBC [9]: 12.5 µg/mL
MIC [10, 25]: 6.25 µg/mL (≈ 48 µM)
MBC [10, 24]: 6.25 µg/mL (≈ 48 µM)
MIC ([11]; ATCC13932, 37° C., 16 to 20 hours, read-out: MIC concentration (ppm)): 3.13 µg/mL (≈ 24 µM)
MBC ([11]; ATCC13932, read-out: MBC concentration (ppm)): 12.5 µg/mL (≈ 96 µM)
MBC ([12]; ATCC12021, read-out: MBC concentration (ppm)): 12.5 µg/mL (≈ 96 µM)
MIC ([12]; ATCC12021, read-out: MIC concentration (ppm)): 6.25 µg/mL (≈ 48 µM)
S. aureus relative ratio in biofilm ([13]; dilution 1:10, 24 hours): 0.27% ± 0.0%
S. aureus relative ratio in biofilm ([13]; dilution 1:100, 24 hours): 13.9% ± 0.2%
S. aureus relative ratio in biofilm ([13]; dilution 1:1000, 24 hours): 15.2% ± 1.6%
S. aureus relative ratio in biofilm ([13]; dilution 1:10000, 24 hours): 47.2% ± 1.2%
stability to pH [14]: unstable
MIC ([15]; ATCC10702, 37° C., 16 to 20 hours, read-out: MIC concentration (ppm)): 6.25 µg/mL (≈ 48 µM)
MBC ([15]; ATCC10702, read-out: MBC concentration (ppm)): 12.5 µg/mL (≈ 96 µM)
MIC ([16]; ATCC3559, 37° C., 16 to 20 hours, read-out: MIC concentration (ppm)): 6.25 µg/mL (≈ 48 µM)
MBC ([16]; ATCC3559, read-out: MBC concentration (ppm)): 12.5 µg/mL (≈ 96 µM)
E. faecalis relative ratio in biofilm ([17]; dilution 1:10, 24 hours): 65.5% ± 0.6%
E. faecalis relative ratio in biofilm ([17]; dilution 1:100, 24 hours): 39.5% ± 1.0%
E. faecalis relative ratio in biofilm ([17]; dilution 1:1000, 24 hours): 34.4% ± 0.2%
E. faecalis relative ratio in biofilm ([17]; dilution 1:10000, 24 hours): 32.6% ± 0.3%
MIC [18, 25]: 6.25 µg/mL (≈ 48 µM)
MBC [18, 24]: 12.5 µg/mL (≈ 96 µM)
MIC [19]: 25 µg/mL (≈ 192 µM)

CCCCCC(=O)N(C)N=O [Compound 2, N-methyl-N-nitrosohexanamide]
MIC [2, 23]: 0.0043 µg/mL (≈ 0.0272 µM)

CN(N=O)C(=O)CC1CC1 [Compound 3, 2-cyclopropyl-N-methyl-N-nitrosoacetamide]
MIC [2, 26]: 0.005 µg/mL (≈ 0.0352 µM)

C=CC(=O)N(C)N=O [Compound 4, N-methyl-N-nitrosoacrylamide]
MIC [2, 27]: 0.0011 µg/mL (≈ 0.00964 µM)

CN(N=O)C(=O)C1CCC1 [Compound 5, N-methyl-N-nitrosocyclobutanecarboxamide]
MIC [2, 27]: 0.0012 µg/mL (≈ 0.00844 µM)

COCC(=O)N(C)N=O [Compound 6, 2-methoxy-N-methyl-N-nitrosoacetamide]
MIC [2, 26]: 0.0022 µg/mL (≈ 0.0167 µM)

CN(N=O)C(=O)C1CC1 [Compound 7, N-methyl-N-nitrosocyclopropanecarboxamide]
MIC [2, 20]: 0.0101 µg/mL (≈ 0.0788 µM)
MIC [2, 21]: 0.01 µg/mL (≈ 0.078 µM)
MIC [2, 22]: 0.0082 µg/mL (≈ 0.064 µM)

C/C=C/C(=O)N(C)N=O [Compound 8, (2E)-N-methyl-N-nitrosobut-2-enamide]
MIC [2, 27]: 0.0075 µg/mL (≈ 0.0585 µM)

CCCCCCC(=O)N(C)N=O [Compound 9, N-methyl-N-nitrosoheptanamide]
MIC [2, 23]: 0.0075 µg/mL (≈ 0.0435 µM)

CC(C)C(=O)N(C)N=O [Compound 10, N-methyl-N-nitrosisopropanamide]
Amount for 100% inhibition (μg compound/L air) ([2]; Experiment #4): >14.4 μg compound/L air

CCN(N=O)C(=O)C(C)C [Compound 11, N-ethyl-N-nitrosoisobutyramide]
MIC [2, 26]: > 0.0147 µg/mL

CCCN(N=O)C(C)=O [Compound 12, N-nitroso-N-propylacetamide]
MIC [2, 28]: 0.0252 µg/mL (≈ 0.194 µM)

CCCC(=O)N(C)N=O [Compound 13, N-methyl-N-nitrosobutyramide]
MIC [2, 20]: 0.0092 µg/mL (≈ 0.0707 µM)
MIC [2, 21]: 0.0071 µg/mL (≈ 0.0546 µM)
MIC [2, 22]: 0.0075 µg/mL (≈ 0.0576 µM)

CC(=O)N(N=O)C1CC1 [Compound 14, N-cyclopropyl-N-nitrosoacetamide]
MIC [2, 20]: 0.0278 µg/mL (≈ 0.217 µM)

CC(=O)N(N=O)C(C)C [Compound 16, N-isopropyl-N-nitrosoacetamide]
MIC [2, 21]: > 0.0806 µg/mL
MIC [2, 28]: 0.025 µg/mL (≈ 0.192 µM)

O=NN1CCCCC1=O [Compound 17, 1-nitrosopiperidine-2-one]
MIC [2, 22]: > 0.0036 µg/mL

O=NN1CCCC1=O [Compound 18, 1-nitrosopyrrolidin-2-one]
MIC [2, 21]: > 0.084 µg/mL
MIC [2, 26]: > 0.0163 µg/mL

CC(C)CC(=O)N(C)N=O [Compound 19, N-3-dimethyl-N-nitrosobutanamide]
Amount for 100% inhibition (μg compound/L air) ([2]; Experiment #5): >15.5 μg compound/L air

CCC(=O)N(C)N=O [Compound 20, N-methyl-N-nitrosopropanamide]
MIC [2, 23]: 0.0075 µg/mL (≈ 0.0646 µM)

CCCCC(=O)N(C)N=O [Compound 21, N-methyl-N-nitrosopentanamide]
MIC [2, 23]: 0.0163 µg/mL (≈ 0.113 µM)

CCC(C)C(=O)N(C)N=O (stereo not drawn) [Compound 22, N,2-dimethyl-N-nitrosobutanamide]
MIC [2, 27]: > 0.0152 µg/mL

COCC(=O)N(C)N=O [drawing 50]
MIC [9]: 25 µg/mL
MBC [9]: > 50 µg/mL

C=CC(=O)N(C)N=O [drawing 51]
MIC [9]: > 50 µg/mL
MBC [9]: > 50 µg/mL

C/C=C/C(=O)N(C)N=O [drawing 52]
MIC [9]: 6.25 µg/mL
MBC [9]: 25 µg/mL

CCC(=O)N(C)N=O [drawing 53]
MIC [9]: 12.5 µg/mL
MBC [9]: 25 µg/mL

CCCCCCC(=O)N(C)N=O [drawing 54]
MIC [9]: 6.25 µg/mL
MBC [9]: 25 µg/mL

CC(C)CC(=O)N(C)N=O [drawing 55]
MIC [9]: 0.78 µg/mL
MBC [9]: 25 µg/mL
